Data taken from US8183271B2, “Tetrazole derivatives and their use for the treatment of cardiovascular diseases” (Bayer Intellectual Property GmbH, priority 2005, dated 2012).

Assays:
saphenous artery rings = test: Vasorelaxant effect in vitro (phenylephrine-contracted artery rings); assay type: cell-based, Rabbits; conditions: rabbit saphenous artery rings, contraction induced by phenylephrine
Description: Rabbits are anesthetized and sacrificed by intravenous injection of thiopental sodium (about 50 mg/kg) and exsanguinated. The saphenous artery is removed and divided into rings 3 mm wide. The rings are mounted singly on in each case a pair of triangular hooks open at the end and made of 0.3 mm-thick special wire (Remanium®). Each ring is placed under an initial tension in 5 ml organ baths with Krebs-Henseleit solution which is at 37° C., is gassed with 95% O2/5% CO2 and has the following composition: NaCl 119 mM; KCl 4.8 mM; CaCl2×2H2O 1 mM; MgSO4×7H2O 1.4 mM; KH2PO4 1.2 mM; NaHCO3 25 mM; glucose 10 mM; bovine serum albumin 0.001%. The force of contraction is detected with Statham UC2 cells, amplified and digitized via A/D converters (DAS-1802 HC, Keithley Instruments, Munich) and recorded in parallel on chart recorders. Contractions are induced by addition of phenylephrine.
After several (generally 4) control cycles, the substance to be investigated is added in each further run in increasing dosage, and the height of the contraction achieved under the influence of the test substance is compared with the height of the contraction reached in the last preceding run. The concentration necessary to reduce the contraction reached in the preceding control by 50% is calculated from this (IC50). The standard application volume is 5 μl. The proportion of DMSO in the bath solution corresponds to 0.1%.

[1] = target: T1, Heme-free sGC (recombinant soluble guanylate cyclase) (Rattus norvegicus, UniProt P20595); test: Stimulation of recombinant soluble guanylate cyclase (sGC) in vitro, heme-free enzyme; assay type: biochemical
T1 construct: made in house
T1 sequence (P20595 1-619): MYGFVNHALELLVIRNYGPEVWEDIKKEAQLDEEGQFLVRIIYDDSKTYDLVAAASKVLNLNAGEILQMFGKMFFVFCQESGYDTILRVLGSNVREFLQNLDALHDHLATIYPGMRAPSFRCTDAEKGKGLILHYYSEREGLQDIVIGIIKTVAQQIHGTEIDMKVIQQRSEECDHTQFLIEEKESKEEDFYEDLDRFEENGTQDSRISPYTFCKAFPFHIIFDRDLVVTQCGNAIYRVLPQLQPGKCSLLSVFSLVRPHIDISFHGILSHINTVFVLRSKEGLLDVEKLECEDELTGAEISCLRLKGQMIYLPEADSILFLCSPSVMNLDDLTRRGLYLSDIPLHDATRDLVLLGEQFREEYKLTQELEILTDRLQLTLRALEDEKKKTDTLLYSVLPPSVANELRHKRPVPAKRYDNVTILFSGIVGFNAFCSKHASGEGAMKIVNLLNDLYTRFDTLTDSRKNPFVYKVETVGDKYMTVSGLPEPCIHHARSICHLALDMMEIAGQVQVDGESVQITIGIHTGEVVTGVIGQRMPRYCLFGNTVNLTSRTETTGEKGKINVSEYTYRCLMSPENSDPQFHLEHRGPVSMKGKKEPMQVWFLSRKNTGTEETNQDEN
T1 sequence (P19686 1-690 partner): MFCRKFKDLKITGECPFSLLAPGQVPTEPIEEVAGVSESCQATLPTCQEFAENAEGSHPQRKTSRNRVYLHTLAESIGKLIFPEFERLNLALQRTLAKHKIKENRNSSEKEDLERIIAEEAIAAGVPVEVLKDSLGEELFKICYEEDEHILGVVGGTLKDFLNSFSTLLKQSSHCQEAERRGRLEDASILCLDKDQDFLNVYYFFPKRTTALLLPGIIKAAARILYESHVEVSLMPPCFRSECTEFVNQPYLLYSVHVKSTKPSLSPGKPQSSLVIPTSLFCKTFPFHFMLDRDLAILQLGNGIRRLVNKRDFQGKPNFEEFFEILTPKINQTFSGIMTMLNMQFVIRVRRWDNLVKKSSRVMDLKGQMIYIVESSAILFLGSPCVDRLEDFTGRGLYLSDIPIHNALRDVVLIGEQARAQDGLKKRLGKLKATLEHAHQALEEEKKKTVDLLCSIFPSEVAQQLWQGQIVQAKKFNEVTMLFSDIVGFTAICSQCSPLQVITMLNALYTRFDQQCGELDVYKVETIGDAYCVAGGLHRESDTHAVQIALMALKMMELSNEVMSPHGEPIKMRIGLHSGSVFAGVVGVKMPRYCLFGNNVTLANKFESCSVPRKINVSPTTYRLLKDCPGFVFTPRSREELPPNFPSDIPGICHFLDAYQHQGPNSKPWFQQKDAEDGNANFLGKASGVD
Description: Investigations on the stimulation of recombinant soluble guanylate cyclase (sGC) by the compounds according to the invention with and without sodium nitroprusside, and with and without the heme-dependent sGC inhibitor 1H-1,2,4-oxadiazole-(4,3a)-quinoxalin-1-one (ODQ) are carried out by the method described in detail in the following reference: M. Hoenicka, E. M. Becker, H. Apeler, T. Sirichoke, H. Schroeder, R. Gerzer and J.-P. Stasch, “Purified soluble guanylyl cyclase expressed in a baculovirus/Sf9 system: Stimulation by YC-1, nitric oxide, and […]”, J. Mol. Med. 77 (1999), 14-23. The heme-free guanylate cyclase is obtained by adding Tween 20 to the sample buffer (0.5% in the final concentration).
The activation of sGC by a test substance is reported as n-fold stimulation of the basal activity.

`CC(C)(C)c1ccc(COc2ccccc2/C=C/C(CCc2ccc(-c3nnn[nH]3)cc2)Cc2ccc(C(=O)O)cc2)cc1` (single isomer, unassigned) [Example 6, 4-((3E)-4-{2-[(4-tert-Butylbenzyl)oxy]phenyl}-2-{2-[4-(1H-tetrazol-5-yl)phenyl]ethyl}but-3-en-1-yl)benzoic acid] was tested, and the IC50 (saphenous artery rings) was 119 nM, the “Stimulation (n-fold) Heme-free sGC Basal” value ([1]; 0.001 μM Example 6) was 3.2 n-fold and the “Stimulation (n-fold) Heme-free sGC +10 μM ODQ” value ([1]; 0.001 μM Example 6 + 10 μM ODQ) was 3.0 n-fold. For the same compound, the “Stimulation (n-fold) Heme-free sGC Basal” value ([1]; 0.01 μM Example 6) was 20.4 n-fold, the “Stimulation (n-fold) Heme-free sGC +10 μM ODQ” value ([1]; 0.01 μM Example 6 + 10 μM ODQ) was 18.9 n-fold and the “Stimulation (n-fold) Heme-free sGC Basal” value ([1]; 0.1 μM Example 6) was 90.9 n-fold. For the same compound, the “Stimulation (n-fold) Heme-free sGC +10 μM ODQ” value ([1]; 0.1 μM Example 6 + 10 μM ODQ) was 89.7 n-fold, the “Stimulation (n-fold) Heme-free sGC Basal” value ([1]; 1 μM Example 6) was 143.8 n-fold and the “Stimulation (n-fold) Heme-free sGC +10 μM ODQ” value ([1]; 1 μM Example 6 + 10 μM ODQ) was 143.8 n-fold. For the same compound, the “Stimulation (n-fold) Heme-free sGC Basal” value ([1]; 10 μM Example 6) was 145.9 n-fold and the “Stimulation (n-fold) Heme-free sGC +10 μM ODQ” value ([1]; 10 μM Example 6 + 10 μM ODQ) was 149.3 n-fold.
